Source: patent US11110114B2, “Dinucleotides” (OXFORD UNIVERSITY INNOVATION LIMITED, priority 2017, dated 2021)
Like-named read-outs stand apart in the source and are kept apart here. In the oligonucleotide strings, read from the 5' end, every base follows the letter of its sugar. An asterisk marks phosphorothioate; unmarked linkages are phosphodiester. Other units and linkages are bracketed, terminal groups are in braces. A string of capitals states the bases alone. [tz] = triazole internucleoside linkage; l = locked nucleic acid (LNA); [5mC] = 5-methylcytosine; d = 2'-deoxy (DNA)

Tests used:
Type in all cases: binding
[1] = system: RNA Target 3′-rGAG UGM UAG ACG A; experiment: Mismatch discrimination by UV melting (Table 3)
Experimental: (§1) UV DNA melting curves were recorded in a Cary 4000 Scan UV-Visible Spectrophotometer using 3 μM of each oligonucleotide in a 10 mM phosphate buffer containing 200 mM NaCl at pH 7.0. Samples were annealed by heating to 85° C. (10° C./min) and then slowly cooling to 20° C. (1° C./min). As these six successive cycles (heating and cooling) were performed at a gradient of 1° C./min, the change in UV absorbance at 260 nm was recorded. The melting temperature was calculated from the 1st derivative of the melting curve using in built software.

[2] = system: DNA target 5′-dGCT GCA GGC GTC G (SEQ ID NO: 35); conditions: for Tm DNA target: pH 7
[3] = system: RNA target 5′-rGCU GCA GGC GUC G (SEQ ID NO: 36); conditions: for Tm RNA target: pH 7
[4] = system: DNA target: 5′-dGCT GGA GAG GTC G (SEQ ID NO: 39)
[5] = system: RNA Target 3′-rGCUGCGMACGUCG; experiment: Mismatch discrimination by UV melting, single triazole linkage MeC-T step (Table 6)
[6] = system: RNA target: 5′-rGCU GCA AGC GUC G (SEQ ID NO: 49); experiment: UV melting, single triazole linkage, RNA target (Table 8)
[7] = system: DNA target: 5′-dGCT GCA AGC GTC G (SEQ ID NO: 48); experiment: UV melting, single triazole linkage, DNA target (Table 8)
[8] = system: DNA target; 5′-dGCT AGA GAA GTC G (SEQ ID NO: 52); experiment: UV melting, two triazole linkages, DNA target (Table 9); conditions: two MeC-T steps
Experimental: as §1
(§2) Next, oligonucleotides incorporating two triazole inter-nucleotide linkage steps were prepared by templated CuAAC click ligation reactions in the presence of a complementary splint. The ligated oligonucleotides were purified by denaturating 20% polyacrylamide gel electrophoresis and were evaluated for their binding affinity for complementary DNA/RNA strands (Table 9). […] When compared to unmodified ON7, a drop of only 0.8° C./modification was observed (ON8, RNA target). […] Since the improvement in binding affinity is specific for DNA:RNA hybrids, triazole-linked LNA could find use in selective probes for RNA targeting.

[9] = system: RNA target; 5′-rGCU AGA GAA GUC G (SEQ ID NO: 18); experiment: UV melting, two triazole linkages, RNA target (Table 9); conditions: for TM RNA TARGET: two MeC-T steps
Experimental: as §1, §2

[10] = fully matched RNA target (M = A)
[11] = mismatch M = C, relative to the fully matched duplex (M = A)
[12] = mismatch M = G, relative to the fully matched duplex (M = A)
[13] = mismatch M = U, relative to the fully matched duplex (M = A)
[14] = 10 mM phosphate, 200 mM NaCl, pH 7.0, 3.0 μM each strand
[15] = relative to the unmodified duplex (ON1)

“5′-CTC ACT ATC TG^MeCT (DNA dCdTdCdAdCdTdAdTdCdTdGd[5mC]dT) [ON100, reference compound]” was tested, and the TM M = A [1, 10] was 54.8 °C and the “ΔTM U” value ([1]; mismatch RNA target M = U, change in Tm relative to the fully matched duplex (M = A)) was -11.3.

Work on “5′-d CGACG^MeCp^MeCTGCAGC (DNA dCdGdAdCdGd[5mC]d[5mC]dTdGdCdAdGdC) [ON33, reference compound]” yielded a Tm DNA target [2] of 68.7 °C and a Tm RNA target [3] of 69.1 °C.

With “5′-d CGACG^MeCp^MeC^LTGCAGC (DNA dCdGdAdCdGd[5mC]l[5mC]dTdGdCdAdGdC) [ON34, reference compound]” the “ΔTm DNA target” value [2] was “+3.3”, the Tm DNA target [2] was 72 °C and the “ΔTm RNA target” value [3] was “+5.6”. The Tm RNA target [3] was 74.7 °C.

For “5′-d CGACG^MeCt^MeCTGCAGC (DNA dCdGdAdCdGd[5mC][tz]d[5mC]dTdGdCdAdGdC) [ON12]”, the “ΔTm DNA target” value [2] was -6.4, the Tm DNA target [2] was 62 °C and the “ΔTm RNA target” value [3] was -5.8. The Tm RNA target [3] was 63.4 °C.

With “5′-dCGACG^MeCt^MeC^LTGCAGC (DNA dCdGdAdCdGd[5mC][tz]l[5mC]dTdGdCdAdGdC) [ON11]” the “ΔTm DNA target” value [2] was -5.1, the Tm DNA target [2] was 63.5 °C and the “ΔTm RNA target” value [3] was -0.5. The Tm RNA target [3] was 68.6 °C.

“5′-dCGA^MeCp^MeCTCT^MeCp^MeCAGC (DNA dCdGdAd[5mC]d[5mC]dTdCdTd[5mC]d[5mC]dAdGdC) [ON35, reference compound]” gave a Tm DNA target [4] of 66.6 °C.

“5′-dCGA^MeCp^MeC^LTCT^MeCp^MeC^LAGC [ON36, reference compound]” was tested, and the Tm DNA target [4] was 72.2 °C and the “ΔTm/mod DNA target” value [4] was “+2.8”.

For 5′-dCGA^MeCt^MeCTCT^MeCt^MeCAGC [ON14], the Tm DNA target [4] was 51.9 °C and the “ΔTm/mod DNA target” value [4] was -7.3.

With “5′-dCGA^MeCt^MeC^LTCT^MeCt^MeC^LAGC [ON13]” the Tm DNA target [4] was 56.4 °C and the “ΔTm/mod DNA target” value [4] was -5.1.

“CGACG^MeCTTGCAGC (dCdGdAdCdGd[5mC]dTdTdGdCdAdGdC) [ON1, unmodified 13-mer, reference compound]” was tested, and the TM M = A [5, 10] was 62.8 °C, the “ΔTM C” value [5, 11] was -16.3 and the “ΔTM G” value [5, 12] was -3.9. For the same substance, the “ΔTM U” value [5, 13] was -13.7, the “TM RNA TARGET” value [6, 14] was 62.8 °C and the “TM DNA TARGET” value [7, 14] was 64.2 °C.

With “CGACG^MeCT^LTGCAGC (DNA dCdGdAdCdGd[5mC]lTdTdGdCdAdGdC) [ON4, reference compound]” the TM M = A [5] was 68.9 °C, the “ΔTM C” value [5] was -15.2 and the “ΔTM G” value [5] was -4.8. The “ΔTM U” value [5] was -13.7, the ΔTM RNA TARGET [6] was 6.1 °C and the TM RNA TARGET ([6]; pH 7) was 68.9 °C. For the same substance, the ΔTM DNA TARGET [7] was 3.3 °C and the TM DNA TARGET ([7]; pH 7) was 67.5 °C.

With “CGACG^MeC^LtTTGCAGC (dCdGdAdCdGl[5mC][tz]dTdTdGdCdAdGdC) [ON5, LNA on the 5′-side of the triazole]” the “TM RNA TARGET” value [6, 14] was 55.5 °C, the “additional stabilising effect of LNA on the 5′-side of the triazole” value ([6]; DNA:RNA hybrids or DNA duplexes (Table 8)) was “no significant additional stabilising effect” and the “ΔTM RNA TARGET” value [6, 15] was -7.2 °C. The “TM DNA TARGET” value [7, 14] was 52.7 °C and the “ΔTM DNA TARGET” value [7, 15] was -11.5 °C.

For “CGACG^MeC^LtT^LTGCAGC (DNA dCdGdAdCdGl[5mC][tz]lTdTdGdCdAdGdC) [ON6]”, the “additional stabilising effect of LNA on the 5′-side of the triazole” value [6] was “no significant additional stabilising effect”, the “ΔTM RNA TARGET” value [6] was “+0.1” and the TM RNA TARGET ([6]; pH 7) was 62.9 °C. For the same substance, the “ΔTM DNA TARGET” value [7] was -5.8 and the TM DNA TARGET ([7]; pH 7) was 58.4 °C.

In the case of CGACG^MeCtTTGCAGC [ON3], the TM M = A [5, 10] is reported as 56.6 °C, the “ΔTM C” value [5, 11] is reported as -16.1 and the “ΔTM G” value [5, 12] is reported as -2.2. The “ΔTM U” value [5, 13] was -12.9, the “TM RNA TARGET” value [6, 14] was 56.6 °C and the “ΔTM RNA TARGET” value [6, 15] was -6.2 °C. For the same substance, the “TM DNA TARGET” value [7, 14] was 55.3 °C and the “ΔTM DNA TARGET” value [7, 15] was -8.9 °C.

With “CGACG^MeCtT^LTGCAGC (DNA dCdGdAdCdGd[5mC][tz]lTdTdGdCdAdGdC) [ON2]” the TM M = A [5] was 62 °C, the “ΔTM C” value [5] was -15.6 and the “ΔTM G” value [5] was -3.3. The “ΔTM U” value [5] was -13.4, the “increase in Tm relative to the duplex with only the triazole linkage” value [6] was 5.4 and the “ΔTM RNA TARGET” value [6] was −0.8. The TM RNA TARGET ([6]; pH 7) was 62 °C, the “increase in thermal stability compared to the duplex containing only the triazole linkage” value [7] was 2.9 and the “ΔTM DNA TARGET” value [7] was −6.0. It also gave a TM DNA TARGET ([7]; pH 7) of 58.2 °C.

In the case of “CGA^MeCTTCT^MeCTAGC (dCdGdAd[5mC]dTdTdCdTd[5mC]dTdAdGdC) [ON7, unmodified 13-mer, reference compound]”, the “TM DNA TARGET” value [8] is reported as 57.1 °C and the “TM RNA TARGET” value [9] is reported as 58.8 °C.

In the case of “CGA^MeCT^LTCT^MeCT^LAGC (dCdGdAd[5mC]lTdTdCdTd[5mC]lTdAdGdC) [ON10, two LNA, no triazole, reference compound]”, the “TM DNA TARGET” value [8] is reported as 62.2 °C and the “TM RNA TARGET” value [9] is reported as 70.0 °C.

With CGA^MeCtTTCT^MeCtTAGC [ON9] the “TM DNA TARGET” value [8] was 42.3 °C and the “TM RNA TARGET” value [9] was 47.1 °C.

With CGA^MeCtT^LTCT^MeCtT^LAGC [ON8] the “TM DNA TARGET” value [8] was 48.0 °C, the “drop in Tm compared to unmodified ON7” value ([9]; RNA target) was 0.8 °C/modification and the “increase in Tm relative to oligonucleotides with two triazole linkages without 3′-LNA” value ([9]; RNA target, compare ON8 and ON9) was 5.0 °C/modification. For the same substance, the “TM RNA TARGET” value [9] was 57.1 °C.
